{"source": "patent US9844577B1", "about": "“Medicinal composition for prevention or treatment retinal ischemia” (priority 2017, dated 2017)", "test_in_all_cases": "Retinal protein level by western blot after retinal ischemia", "assay_type_in_all_cases": "in vivo, Wistar rats", "key": {"[1]": {"system": "VEGF protein", "conditions": "intravitreal 5 μl 15 min before ischemia: 4 μM Shikonin, 10 μM JIB-04, 100 mg/4 ml Avastin; Vehicle 6.92±1.55", "protocol": "(§1) After anesthesia, rats (200-250 g) were placed in a stereotaxic frame. A high intraocular pressure (HIOP) of 120 mmHg for 60 min was induced by cannulating the anterior chamber of one eye of an ischemic rat with a 30-gauge needle connected to an elevated 0.9% saline reservoir. The ischemic insult was confirmed by the detection of a pale eye fundus. In contrast, one eye of a control rat received a sham procedure where the saline reservoir was not elevated.\n(§2) An intake of 1.35 or 2.7 g/kg/day XFZYD (Sun Ten Pharmaceutical CO, Taichung, Taiwan) was given for 7 consecutive days before or after HIOP induced retinal ischemia until the rats were sacrificed. The test rat whose eye was subjected to ischemia was fed with the constant volume (4 ml) of XFZYD or the equal volume of vehicle.\n(§3) After anesthesia as described, pupil dilation with 1% tropicamide (Alcon, ZG, Switzerland) and 2.5% phenylephrine (Akorn, Inc., IL, USA) as well as surface anesthesia with 0.5% proparacaine (Alcon, ZG, Switzerland), a 30-gauge needle attached to a 25 μl syringe was used to perform intravitreal injections. In certain instances, intravitreal injections 5 μl of 4 μM Shikolin (Sigma-Aldrich, MO, USA), 10 μM JIB-04 (Sigma-Aldrich, MO, USA), 5 μl of 100 mg/4 ml Avastin (Hoffmann-La Roche, Basel, Switzerland) or of vehicle (an equal volume of dimethyl sulfoxide; J. T. Baker, NJ, USA) were performed on ischemic eyes fifteen minutes before pressure induced retinal ischemia.\n(§4) Twenty-four hours after retinal ischemia and pre-/post-ischemia administration of the defined chemicals or after a sham procedure, the rats were sacrificed. The retinas were removed and sonicated in lysis buffer, namely mammalian protein extraction reagent (HyCell, Taipei, Taiwan). […] Journal of Ocular Pharmacology and Therapeutics. 2010; 26(5):421-429; Hsiao-Ming Chao, Min-Jay Chuang, Jorn-Hon Liu, Xiao-Qian Liu, Li-Kang Ho, Wynn H. T. Pan, Xiu-Mei Zhang, Chi-Ming Liu, Shen-Kou Tsai, Chi-Woon Kong, Shou-Dong Lee, Mi-Mi Chen, and Fang-Ping Chao. Baicalein protects against retinal ischemia by antioxidation, antiapoptosis, downregulation of HIF-1α, VEGF, and MMP-9 and upregulation of HO-1. Journal of Ocular Pharmacology and Therapeutics. 29(6): 539-549, 2013). The separated proteins were transferred to a polyvinylidene difluoride (PVDF) membrane (Millipore, MA, USA). The membranes were then blocked for 1 hour at room temperature with 5% fat-free skimmed milk (Fonterra, Taoyuan, Taiwan) in phosphate-buffered saline (PBS). Next, the blots were incubated individually overnight at 4° C. with one of the following primary antibodies, namely, mouse monoclonal anti-β-actin antibody (1:80000, Novusbio, MA, USA), mouse monoclonal anti-VEGF antibody (1:200, Novusbio, MA, USA), mouse monoclonal anti-HIF-1α antibody (1:1000, Abcom, Cambridge, UK), rabbit polyclonal anti-PKM2 antibody (1:600, Abcom, Cambridge, UK) and rabbit monoclonal anti-RBP2 antibody (1:500, Abcom, Cambridge, UK). The blots were then incubated in the secondary antibody, either horseradish peroxidase (HRP)-conjugated goat anti-rabbit or antimouse IgG (1:2000 or 1:10000, Santa Cruz Biotechnology, TX, USA) as appropriate at 37° C. for 1 h. The primary/secondary antibodies were diluted in 5% fat-free skimmed milk. Finally, the membranes were developed using the enhanced chemiluminescent analysis system (HyCell, Taipei, Taiwan), and exposed to an X-ray film (Fujifilm, Tokyo, Japan). Scanning densitometry was used to analyze the amount of each protein present."}, "[2]": {"system": "HIF-1α protein", "conditions": "intravitreal 5 μl 15 min before ischemia: 4 μM Shikonin, 10 μM JIB-04, 100 mg/4 ml Avastin; Vehicle 3.69±0.22", "protocol": "as §1, §2, §3, §4"}, "[3]": {"system": "PKM2 protein", "conditions": "intravitreal 5 μl 15 min before ischemia: 4 μM Shikonin, 10 μM JIB-04, 100 mg/4 ml Avastin; Vehicle 4.04±0.50", "protocol": "as §1, §2, §3, §4"}, "[4]": {"system": "RBP2 protein", "conditions": "intravitreal 5 μl 15 min before ischemia: 4 μM Shikonin, 10 μM JIB-04, 100 mg/4 ml Avastin; Vehicle 7.77±2.27", "protocol": "as §1, §2, §3, §4"}}, "data": [{"compound": "Avastin: VEGF antibody (Hoffmann-La Roche)", "values": [{"measurement": "ratio of protein expression level of VEGF relative to β-actin", "setting": "[1]", "result": "1.08±0.23"}, {"measurement": "ratio of protein expression level of HIF-1α relative to β-actin", "setting": "[2]", "result": "3.65±0.84"}, {"measurement": "ratio of protein expression level of PKM2 relative to β-actin", "setting": "[3]", "result": "3.42±0.88"}, {"measurement": "ratio of protein expression level of RBP2 relative to β-actin", "setting": "[4]", "result": "6.00±3.61"}]}, {"compound": "CC(C)=CC[C@@H](O)C1=CC(=O)c2c(O)ccc(O)c2C1=O", "note": "[Shikonin]", "values": [{"measurement": "ratio of protein expression level of VEGF relative to β-actin", "setting": "[1]", "result": "1.84±0.60"}, {"measurement": "ratio of protein expression level of HIF-1α relative to β-actin", "setting": "[2]", "result": "1.95±0.76"}, {"measurement": "ratio of protein expression level of PKM2 relative to β-actin", "setting": "[3]", "result": "0.61±0.19"}, {"measurement": "ratio of protein expression level of RBP2 relative to β-actin", "setting": "[4]", "result": "1.00±0.71"}]}, {"compound": "Clc1ccc(N/N=C(\\c2ccccc2)c2ccccn2)nc1", "note": "[JIB-04]", "values": [{"measurement": "ratio of protein expression level of VEGF relative to β-actin", "setting": "[1]", "result": "1.68±0.46"}, {"measurement": "ratio of protein expression level of HIF-1α relative to β-actin", "setting": "[2]", "result": "2.14±1.11"}, {"measurement": "ratio of protein expression level of PKM2 relative to β-actin", "setting": "[3]", "result": "1.67±1.31"}, {"measurement": "ratio of protein expression level of RBP2 relative to β-actin", "setting": "[4]", "result": "1.16±0.14"}]}]}
